In PubChem BioAssay (NCI) one finds TGI and GI50 data, which are given here for 15 compounds.

Among the test systems are CCRF-CEM leukemia; HCT-116 colon; OVCAR-4 ovarian; RPMI-8226 leukemia; SF-295 CNS; SK-MEL-2 melanoma; SNB-19 CNS; TK-10 renal; U251 CNS.
Holding throughout (assay): growth of human tumour cells (NCI), 48 h

Molecules are shown by their SMILES. Several values for one entry are separate records, joined by “and”; a condition that tells them apart may be missing. Equal entries are not always repeated.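 Compound exposure: 48 hours, 5 concentrations, 96-well plates. GI50: concentration for 50% inhibition of growth. TGI: total growth inhibition.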

As to `COC(=O)C(Cc1nc2ccccc2[nH]c1=O)C(=O)C(=O)Nc1ccc([N+](=O)[O-])cc1[N+](=O)[O-]` (stereo not given), the TGI was determined as 51.9 µM in the test with CCRF-CEM leukemia; 46.5 µM in the test on HCT-116 colon; 64.1 µM in the test with OVCAR-4 ovarian; 85.1 µM in the test with RPMI-8226 leukemia; 49.9 µM in the test on SF-295 CNS; 69 µM with SK-MEL-2 melanoma. The values for the TGI in the test with SNB-19 CNS, in the test with TK-10 renal and with U251 CNS were > 100 µM, 61.4 µM and 32.5 µM, respectively.
Take `CC(=O)OC1CC2C(C)(C)C(=O)C=C[C@]2(C)C2CCC3(C)C(=CC(=O)C3c3ccoc3)[C@]12C` (stereo not given in full): the TGI in the test on CCRF-CEM leukemia is 30 µM; in the test on HCT-116 colon, 24.9 µM; in the test with OVCAR-4 ovarian, 50.5 µM; in the test with RPMI-8226 leukemia, 36.1 µM; in the test on SF-295 CNS, 28.7 µM; in the test with SK-MEL-2 melanoma it was 34.5 µM. The TGI in the test with SNB-19 CNS turned out to be 29.2 µM; with TK-10 renal it was 30 µM.
On to `CN(C)C=C1C(Cl)=C(C=O)CC(C=O)=C1Cl`, for which the TGI in the test on CCRF-CEM leukemia is 10.6 µM; in the test with OVCAR-4 ovarian it was 27.9 µM; with RPMI-8226 leukemia, 7.2 µM; with SF-295 CNS it was 41.7 µM; in the test with SK-MEL-2 melanoma, 36.9 µM; with SNB-19 CNS it was 27.3 µM. Further, the TGI is 31.8 µM in the test on TK-10 renal and 23.7 µM with U251 CNS.
For the compound `CC1=NN(C(=O)c2ccc([N+](=O)[O-])cc2)C(=O)C1N=Nc1ccccc1C(=O)O` (stereo not given), the TGI in the test with CCRF-CEM leukemia, in the test with HCT-116 colon, in the test with RPMI-8226 leukemia, in the test on SF-295 CNS, with SK-MEL-2 melanoma and with SNB-19 CNS was > 100 µM each time. Further, the TGI with TK-10 renal and in the test on U251 CNS was > 100 µM in each case.
In the case of `CC(=O)[CH-]C(=O)c1ccccc1.CC(=O)[CH-]C(=O)c1ccccc1.CCOCC[O-].CCOCC[O-].[Ti+4]`, the GI50 is 17.3 µM with HCT-116 colon; 31.9 µM in the test with OVCAR-4 ovarian; 18 µM in the test on RPMI-8226 leukemia; 17.5 µM in the test on SF-295 CNS; 14.2 µM with SK-MEL-2 melanoma; 18.1 µM with SNB-19 CNS. Further, the GI50 in the test on U251 CNS is 16 µM. The TGI is 35.6 µM in the test with HCT-116 colon; > 100 µM in the test with OVCAR-4 ovarian; 58.7 µM in the test on RPMI-8226 leukemia; 33.9 µM in the test with SF-295 CNS; 29.6 µM in the test with SK-MEL-2 melanoma; 38.6 µM in the test with SNB-19 CNS. Moreover, the TGI with U251 CNS is 42.2 µM.
As for `O=c1c2cccc3cccc(c4n1CCN=4)c32`, the TGI in the test on CCRF-CEM leukemia, in the test on HCT-116 colon, in the test with OVCAR-4 ovarian, in the test with RPMI-8226 leukemia, in the test on SF-295 CNS and in the test on SK-MEL-2 melanoma was > 100 µM in each case. The TGI is 69.1 µM in the test on TK-10 renal and > 100 µM in the test on U251 CNS.
Take `CN1C(=O)C(=O)c2cc3c(c4c2c1cc1ccccc14)OCO3`: the TGI in the test on CCRF-CEM leukemia, with HCT-116 colon, in the test with OVCAR-4 ovarian, in the test on RPMI-8226 leukemia, in the test on SF-295 CNS and in the test with SK-MEL-2 melanoma was > 100 µM throughout. Further, the TGI with SNB-19 CNS, in the test on TK-10 renal and in the test on U251 CNS was > 100 µM each time.
As to `CO[C@H](C(=O)[C@@H](O)[C@@H](C)O)[C@@H]1Cc2cc3cc(OC4CC(OC5CC(O)C(O)C(C)O5)C(O)C(C)O4)c(C)c(O)c3c(O)c2C(=O)[C@H]1OC1CC(OC2CC(OC3CC(C)(O)C(O)C(C)O3)C(O)C(C)O2)C(O)C(C)O1` (stereo not given in full), the GI50 with CCRF-CEM leukemia is 0.0386 µg/mL and 0.0314 µg/mL; in the test on HCT-116 colon it was 0.0194 µg/mL and 0.0116 µg/mL; in the test on OVCAR-4 ovarian, 0.0389 µg/mL and 0.0236 µg/mL; in the test with RPMI-8226 leukemia it was 0.0265 µg/mL and 0.0214 µg/mL; in the test on SF-295 CNS it was 0.0253 µg/mL; with SK-MEL-2 melanoma, 0.0152 µg/mL and 0.0126 µg/mL. The GI50 in the test on SNB-19 CNS was 0.0238 µg/mL and 0.0179 µg/mL; in the test with TK-10 renal, 0.0792 µg/mL and 0.288 µg/mL; in the test with U251 CNS, 0.016 µg/mL and 0.0132 µg/mL.
`O=[N+]([O-])C1Cc2ccccc2OC1c1ccccc1` (stereo not given): the TGI in the test on CCRF-CEM leukemia, in the test with HCT-116 colon, with OVCAR-4 ovarian, with SF-295 CNS, in the test with SNB-19 CNS and in the test with TK-10 renal was > 100 µM each time. The TGI with U251 CNS was > 100 µM.
Consider `CC(C)(C)C1CCC2c3c([nH]c4ccccc34)C3C(=O)N(c4ccccc4)C(=O)C3C2C1` (stereo not given), for which the TGI in the test on CCRF-CEM leukemia stood at 11 µM; in the test with OVCAR-4 ovarian, 5.36 µM; in the test on RPMI-8226 leukemia it was 28.4 µM; in the test on SF-295 CNS, 16.4 µM; in the test on SNB-19 CNS, 22.5 µM; in the test with TK-10 renal it was 12.5 µM. In the test on U251 CNS, this compound gave a TGI of 11 µM.
For the compound `CC/C(CC(=O)CCC(=O)Nc1ccccc1[N+](=O)[O-])=N/NC(=O)C[n+]1ccccc1`, the TGI in the test with CCRF-CEM leukemia, in the test with HCT-116 colon, in the test on OVCAR-4 ovarian, in the test with RPMI-8226 leukemia, in the test on SF-295 CNS and in the test on SK-MEL-2 melanoma was > 100 µM throughout. Besides, the TGI with SNB-19 CNS, in the test on TK-10 renal and in the test on U251 CNS was > 100 µM each time.
Turning to `C=C[C@@]1(O)CCCC2=C(C(=O)OCC)CC[C@]21C`, the TGI in the test with CCRF-CEM leukemia, in the test on RPMI-8226 leukemia, in the test with SF-295 CNS, in the test with SK-MEL-2 melanoma, in the test with SNB-19 CNS and in the test with TK-10 renal was > 100 µM each time. Moreover, the TGI in the test on U251 CNS was > 100 µM.
As to `O=S1Nc2c(Cl)cc(Cl)c3c(Cl)cc(Cl)c(c23)N1`, the TGI was > 100 µM in the test with CCRF-CEM leukemia; > 100 µM in the test on HCT-116 colon; 91.2 µM in the test on OVCAR-4 ovarian; > 100 µM in the test on RPMI-8226 leukemia; > 100 µM with SF-295 CNS; > 100 µM in the test on SK-MEL-2 melanoma. For the same compound, the TGI in the test on SNB-19 CNS was > 100 µM; in the test on TK-10 renal, > 100 µM; in the test on U251 CNS it was 69.6 µM.
As to `CCC(CNc1cc(OC)cc2cccnc12)NC1CCCCC1` (stereo not given), the GI50 in the test on HCT-116 colon was 10.9 µM; in the test with OVCAR-4 ovarian it was 6.2 µM; in the test on SF-295 CNS, 17.3 µM; in the test with SNB-19 CNS it was 89.7 µM; with U251 CNS, 43.3 µM. Besides, the TGI was 27.9 µM with HCT-116 colon; > 100 µM with OVCAR-4 ovarian; 45.8 µM in the test on SF-295 CNS; > 100 µM in the test with SNB-19 CNS; > 100 µM with U251 CNS.
In the case of `C/C=C/CC(C)[C@@H](O)[C@H](NC)C(=O)O` (stereo not given in full), the TGI in the test on CCRF-CEM leukemia, in the test on OVCAR-4 ovarian, in the test on RPMI-8226 leukemia, in the test on SF-295 CNS, in the test on SK-MEL-2 melanoma and in the test with SNB-19 CNS was > 100 µM throughout. In addition, the TGI in the test on TK-10 renal and with U251 CNS was > 100 µM each time.
